From publication PMC5289647, “L-glutamine Induces Expression of Listeria monocytogenes Virulence Genes” (PLoS Pathogens, 2017) come the findings set out here.

The target of one assay is T1, GlnPQ (Listeria monocytogenes, UniProt A0A0H3GES4).
T1 construct: gene LMRG_02270; native full-length ABC importer in L. monocytogenes cells; uptake compared with glnPQ deletion and complemented strains; glnP locus also printed as LMRG_02770 (apparent misprint)
Kind of assay: radiolabelled uptake by intact bacteria, rapid filtration. Type of assay: cell-based. The conditions noted are these: PBS pH 7.4, 1.6 mM MgSO4, 1% glucose, 37 °C; labelled compound; mixed with unlabelled L-glutamine.

The target in assay [1] is T2, SBP domain of LMRG_02270 (GlnPQ SBP; GlnP) (Listeria monocytogenes, UniProt A0A0H3GES4).
T2 construct: SBP domain only (residues 29-254), signal peptide (first 28 residues) and transmembrane domain removed; N-terminal His-tag (pET-19b), codon-optimised synthetic gene; E. coli BL21-Gold (DE3); locus also printed as LMRG_02770 (apparent misprint)
Kind of assay: isothermal titration calorimetry. Type of assay: binding. (Isothermal titration calorimetry measures the heat released or taken up as one component is titrated into another.)

As usually defined, the Kd is the constant that tells how readily two partners part at equilibrium. A high value points to a looser complex.

T1 sequence (A0A0H3GES4 entry or part of it): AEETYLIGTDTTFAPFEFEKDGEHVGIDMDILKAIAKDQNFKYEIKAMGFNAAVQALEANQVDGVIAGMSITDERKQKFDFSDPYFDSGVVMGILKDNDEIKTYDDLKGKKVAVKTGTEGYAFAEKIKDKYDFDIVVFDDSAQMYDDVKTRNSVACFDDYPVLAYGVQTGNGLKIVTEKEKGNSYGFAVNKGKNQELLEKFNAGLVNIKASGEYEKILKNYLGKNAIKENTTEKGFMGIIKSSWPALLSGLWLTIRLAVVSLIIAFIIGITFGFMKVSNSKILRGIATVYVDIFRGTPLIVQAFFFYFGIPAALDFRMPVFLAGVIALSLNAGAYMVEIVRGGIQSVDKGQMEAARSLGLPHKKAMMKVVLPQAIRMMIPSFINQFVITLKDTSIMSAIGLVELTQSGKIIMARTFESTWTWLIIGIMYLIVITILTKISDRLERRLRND
T1 sequence (A0A0H3GF44 entry or part of it, further chain): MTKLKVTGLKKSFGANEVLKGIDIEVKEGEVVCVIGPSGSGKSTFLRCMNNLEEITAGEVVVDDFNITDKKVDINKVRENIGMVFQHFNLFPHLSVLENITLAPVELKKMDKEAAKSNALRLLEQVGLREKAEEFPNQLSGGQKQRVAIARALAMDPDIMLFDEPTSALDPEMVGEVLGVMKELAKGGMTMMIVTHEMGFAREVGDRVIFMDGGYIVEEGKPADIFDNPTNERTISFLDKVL
T2 sequence (A0A0H3GES4 entry or part of it): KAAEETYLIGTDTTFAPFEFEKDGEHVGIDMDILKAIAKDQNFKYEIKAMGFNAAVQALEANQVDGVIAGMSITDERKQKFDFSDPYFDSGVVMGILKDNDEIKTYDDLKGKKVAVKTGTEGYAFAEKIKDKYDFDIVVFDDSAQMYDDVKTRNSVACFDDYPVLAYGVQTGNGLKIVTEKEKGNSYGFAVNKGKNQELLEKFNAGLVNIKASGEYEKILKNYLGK

`NC(=O)CC[C@H](N)C(=O)O` [3H L-glutamine]: at GlnPQ, the L-glutamine uptake entry is “the rapid uptake of L-glutamine measured in the transport experiments is indeed mediated by an active”.

For the compound `NC(=O)CC[C@H](N)C(=O)O` [L-glutamine], the Kd in assay [1] stood at 4.7 µM.
